# Results published in US12678413B2, “Compositions containing pterosin compound and derivatives thereof active ingredients for prevention or treatment of degenerative brain diseases” (priority 2017, dated 2026).
# Where two headings read alike, the source gives them in different places.
# Key:
# [1] = target: T1, BACE1 (β-secretase, recombinant human enzyme) (Homo sapiens, UniProt P56817); assay: In vitro BACE1 activity assay (FRET kit); format: biochemical; settings: compounds in 10% DMSO, concentrations up to 125 μM
# T1 construct: purchased Pan Vera Co. (Madison, WI, USA)
# Text: BACE1 (beta-secretase) FRET assay kit was purchased from Pan Vera Co. (Madison, WI, USA). All the chemicals and solvents used in column chromatography were of reagent grade and were used as received without further purification.
# A BACE1 fluorescence resonance energy transfer (FRET) assay kit (β-secretase, recombinant human enzyme) was purchased from Pan Vera Co. (Madison, WI, USA).
# BACE1 is an enzyme promotive of the production of β-amyloid, which destroys neurons. In order to examine the effects on the compounds of Table 1 on the activity of BACE1, IC(inhibition concentrations)50 values were determined by measuring BACE1 activity in vitro according to Experimental Methods.
# [2] = target: T2, butyrylcholinesterase (BChE) (Equus caballus, UniProt P81908); assay: In vitro cholinesterase activity assay (Ellman), BChE; format: biochemical; settings: concentrations up to 125 μM; Mean ± SEM; read-out: IC50 Butyrylcholine esterase Mean ± SEM
# T2 construct: horse serum butyrylcholinesterase (BChE, EC3.1.1.8); purchased Sigma-Aldrich Co. (St. Louis, MO, USA); host or cells: horse serum
# Procedure: (§1) The reaction started with the addition of 10 μL of DTNB and 10 μL of Ach or Bch.
# (§2) Briefly, the basis for this assay is the hydrolysis of acetylthiocholine by acetylcholinesterase, producing thiocholine that reacts with DTNB. […] Degrees of inhibition were calculated according to […] wherein E and S represent enzyme activities in the presence and absence of a test sample, respectively.
# (§3) The compounds of Table 1 were evaluated for anti-Alzheimer activity. In this regard, inhibitory activity against AChE (acetylcholinesterase) and BChE (butyrylcholinesterase), which lyse acetylcholine in the central nervous system, was measured according to the Experimental Method to calculate IC(inhibition concentrations)50 values.
# [3] = target: T3, acetylcholinesterase (AChE) (Electrophorus electricus, UniProt O42275); assay: In vitro cholinesterase activity assay (Ellman), AChE; format: biochemical; settings: for IC50: concentrations up to 125 μM, Mean ± SEM, read-out: IC50 Acetylcholine Esterase Mean ± SEM; for SI: selectivity index (BChE/AChE): ratio of IC50 BChE/AChE
# T3 construct: purchased Sigma-Aldrich Co. (St. Louis, MO, USA)
# Procedure: as §1, §2, §3
# [4] = system: NIH3T3 cells; assay: MTT cytotoxicity assay, normal cell line NIH3T3; format: cell-based; settings: NIH3T3 mouse embryo fibroblast, 48 hours incubation
# Procedure: (§4) The normal cell line NIH3T3 (mouse embryo fibroblast cell-line) and the cancerous cell line B16F10 (mouse melanoma cell-line) were separately grown in 96-well plates and incubated for 48 hours with predetermined concentrations of each of the compounds. After additional incubation with MTT, absorbance at 550 nm was read using a microplate reader. Absorbance is an index accounting for a number of viable cells and was used to calculate cell proliferation rates according to the following formula. All experiments were conducted three times for reproducibility. Cell proliferation rate (%)=OD550(sample)/OD550(control)
# (§5) Then, LD50 (Lethal Dose 50) values were calculated on the basis of changes in the cell proliferation rate.
# [5] = system: B16F10 cells; assay: MTT cytotoxicity assay, cancerous cell line B16F10; format: cell-based; settings: B16F10 mouse melanoma, 48 hours incubation
# Procedure: as §4, §5
# [6] = target: T4, BACE1 (Homo sapiens, UniProt P56817); assay: BACE1 enzyme kinetics (Dixon plot and Lineweaver plot); format: biochemical
# T4 construct: purchased Pan Vera Co. (Madison, WI, USA)
# Procedure: A BACE1 fluorescence resonance energy transfer (FRET) assay kit (β-secretase, recombinant human enzyme) was purchased from Pan Vera Co. (Madison, WI, USA). The assay was carried out according to the manual provided, with a modification made thereto as described by Jung et al. (Jung et al., Biol Pharm Bull, 2010, 33:267-272). Quercetin was used as a positive control.
# In addition, an enzyme kinetics experiment was conducted using the Lineweaver plot and Dixon plot (see FIG. 7) in order to examine the BACE1 inhibition mechanism of the novel compound (Compound 2). […] The results of the experiment indicate that the novel compound of the present disclosure is a very potent inhibitor against BACE1.
# [7] = target: T3, acetylcholinesterase (AChE); assay: AChE enzyme kinetics (Dixon plot and Lineweaver plot); format: biochemical
# Procedure: as §1, §2
# [8] = target: T2, butyrylcholinesterase (BChE); assay: BChE enzyme kinetics (Dixon plot and Lineweaver plot); format: biochemical
# Procedure: as §1, §2
# T2 sequence (P81908 whole entry): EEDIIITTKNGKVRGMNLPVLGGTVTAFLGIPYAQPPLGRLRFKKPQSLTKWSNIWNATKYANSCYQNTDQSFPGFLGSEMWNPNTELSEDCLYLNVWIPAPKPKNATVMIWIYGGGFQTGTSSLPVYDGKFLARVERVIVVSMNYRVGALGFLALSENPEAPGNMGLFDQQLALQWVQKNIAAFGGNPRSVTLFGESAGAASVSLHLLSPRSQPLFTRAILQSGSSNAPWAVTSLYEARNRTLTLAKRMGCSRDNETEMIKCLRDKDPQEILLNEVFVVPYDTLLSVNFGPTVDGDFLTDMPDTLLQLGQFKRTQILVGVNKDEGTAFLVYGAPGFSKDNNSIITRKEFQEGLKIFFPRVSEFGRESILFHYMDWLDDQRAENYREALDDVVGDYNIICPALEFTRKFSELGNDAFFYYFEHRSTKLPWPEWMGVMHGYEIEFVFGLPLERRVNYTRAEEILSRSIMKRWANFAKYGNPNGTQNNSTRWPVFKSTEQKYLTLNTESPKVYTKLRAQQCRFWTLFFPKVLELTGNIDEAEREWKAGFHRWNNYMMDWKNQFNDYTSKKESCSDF
# T1 sequence (P56817 46-501): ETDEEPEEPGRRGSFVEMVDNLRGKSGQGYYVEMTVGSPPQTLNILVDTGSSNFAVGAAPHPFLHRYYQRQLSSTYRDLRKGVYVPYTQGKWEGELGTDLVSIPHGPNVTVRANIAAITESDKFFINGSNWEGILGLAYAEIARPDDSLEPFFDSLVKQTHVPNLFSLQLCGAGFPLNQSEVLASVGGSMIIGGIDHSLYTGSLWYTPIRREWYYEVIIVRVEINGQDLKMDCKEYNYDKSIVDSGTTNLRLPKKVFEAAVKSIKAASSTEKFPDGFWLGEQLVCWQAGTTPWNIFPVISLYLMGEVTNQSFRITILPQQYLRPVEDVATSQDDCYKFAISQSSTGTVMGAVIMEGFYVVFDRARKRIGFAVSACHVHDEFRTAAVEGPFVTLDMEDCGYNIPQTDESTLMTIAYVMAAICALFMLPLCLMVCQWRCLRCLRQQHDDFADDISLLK
# T4 sequence (P56817 46-501): as above
# T3 sequence (O42275 24-633): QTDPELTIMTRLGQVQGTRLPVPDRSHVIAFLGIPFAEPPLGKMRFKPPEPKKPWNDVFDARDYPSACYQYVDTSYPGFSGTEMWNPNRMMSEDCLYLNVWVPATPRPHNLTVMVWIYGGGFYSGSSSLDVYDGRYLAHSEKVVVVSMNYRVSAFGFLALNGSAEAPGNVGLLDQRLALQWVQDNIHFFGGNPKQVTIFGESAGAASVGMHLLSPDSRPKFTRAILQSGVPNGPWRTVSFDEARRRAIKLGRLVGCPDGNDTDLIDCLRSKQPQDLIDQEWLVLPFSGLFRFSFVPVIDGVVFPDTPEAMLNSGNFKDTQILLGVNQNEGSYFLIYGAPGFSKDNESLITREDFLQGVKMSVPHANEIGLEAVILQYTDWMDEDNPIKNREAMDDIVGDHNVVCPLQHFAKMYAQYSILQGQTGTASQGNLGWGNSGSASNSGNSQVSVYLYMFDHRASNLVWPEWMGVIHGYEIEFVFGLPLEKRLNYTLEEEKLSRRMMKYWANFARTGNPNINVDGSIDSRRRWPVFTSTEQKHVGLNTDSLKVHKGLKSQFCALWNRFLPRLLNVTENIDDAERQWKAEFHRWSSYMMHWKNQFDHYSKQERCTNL
SMILES,IC50 [1] [µM],IC50 [2] [µM],IC50 [3] [µM],SI: selectivity index (BChE/AChE) [3],LD50 Normal cell NIH3T3 [4],LD50 Cancer cell B16F10 [5],Inhibition type BACE1 [6],Ki [6] [µM],Inhibition type BACE1 ([6]; listed as (3S)-Pteroside D),Inhibition type Acetylcholinesterase [7],Inhibition type Acetylcholinesterase ([7]; listed as (2R)-Pteroside B),Inhibition type BACE1 ([6]; listed as (2R)-Pteroside B),Inhibition type Butyrylcholinesterase [8],Inhibition type Butyrylcholinesterase ([8]; listed as (2R)-Pteroside B)
"Cc1cc2c(c(C)c1CCO[C@@H]1OC(CO)[C@@H](O)C(O)C1O)C(=O)[C@](C)(O)C2 (single isomer, unassigned; (-)) [Compound 18, (−)-pteroside N]",30.6 ± 1.8,7.39 ± 0.99,4.47 ± 0.29,1.7,">5,000 μM",">5,000 μM",,,,,,,,
"Cc1c(CCO[C@@H]2OC(CO)[C@@H](O)[C@H](O)C2O)c(CO)cc2c1C(=O)[C@@H](C)C2 (stereo partly drawn) [Compound 19, (2S)-pteroside P]",81.3 ± 3.9,33.2 ± 3,57.5 ± 3.2,0.57,">5,000 μM",">5,000 μM",,,,,,,,
"Cc1cc2c(c(C)c1CCO[C@@H]1OC(CO)[C@@H](O)[C@H](O)C1O)C(=O)[C@](C)(CO)C2 (stereo partly drawn) [Compound 12, (2S)-pteroside A]",84.6 ± 6,19.4 ± 0.22,110 ± 3,0.17,">5,000 μM",">5,000 μM",,,,,,,,
"Cc1cc2c(c(C)c1CCO[C@@H]1OC(CO)[C@@H](O)[C@H](O)C1O)C(=O)C(C)(C)[C@H]2O (stereo partly drawn) [Compound 17, (3S)-pteroside D]",10.7 ± 1.5,,,0.70,">5,000 μM",">5,000 μM",mixed type,16.5,Mixed-type,,,,,
"Cc1cc2c(c(C)c1CCO[C@@H]1OC(CO)[C@@H](O)[C@H](O)C1O)C(=O)[C@H](C)C2 (stereo partly drawn) [Compound 14, (2R)-pteroside B]",43.4 ± 3,17.6 ± 3.1,,6.9,">5,000 μM",">5,000 μM",noncompetitive type,72.5,,mixed type,Mixed-type,Noncompetitive,mixed type,Mixed-type
